Experimental data: patent US20250332178A1, “METHODS OF TREATING MYCOBACTERIAL INFECTIONS USING TETRACYCLINE COMPOUNDS” (priority 2018, published 2025)
≈ marks a conversion by molar mass, not a printed value.

Assays:
[1] = system: Mycobacterium fortuitum; assay: MIC by broth microdilution in CAMHB, clinical isolates; assay type: cell-based
Description: A total of 24 clinical isolates of Mycobacterium abscessus, 22 clinical isolates of Mycobacterium chelonae and 20 clinical isolates of Mycobacterium fortuitum were tested in the study. The study also used the antibiotics tigecycline, doxycycline and amikacin for comparison purposes. […] Amikacin was dissolved in DMSO prior to freezing at −20° C. For susceptibility testing, stock solutions of antibiotic compounds were serially diluted in 50 μL of cation adjusted Mueller-Hinton broth (CAMHB) in polystryrene 96-well round-bottom microtiter plates. To each well, 50 μL of the appropriate mycobacterial cell suspension was added to yield a final concentration of about 1×10^5 CFU/mL. The inoculum used for each isolate was measured by titration in saline with Tween 80 and plating on MH agar. The Mycobacterium abscessus and Mycobacterium fortuitum titer plates were incubated at 37° C. in ambient air for 3-4 days and 5-7 days, respectively. The Mycobacterium chelonae titer plates were incubated at 30° C. in ambient air for 3-5 days. Each isolate was tested at least in duplicate. The MIC was defined as the lowest concentration of antimicrobial agent yielding no visible turbidity.

[2] = system: rapid-growing mycobacteria (RGM) isolates; assay: MIC (CLSI broth dilution), all RGM isolates; assay type: cell-based, nontuberculous mycobacteria; details: all 50 RGM isolates
[3] = system: M. abscessus complex; assay: MIC (CLSI broth dilution), RGM isolates; assay type: cell-based
[4] = system: M. chelonae; assay: MIC (CLSI broth dilution), RGM isolates; assay type: cell-based
[5] = system: M. fortuitum group; assay: MIC (CLSI broth dilution), RGM isolates; assay type: cell-based
[6] = system: M. immunogenum group; assay: MIC (CLSI broth dilution), RGM isolates; assay type: cell-based; details: M. immunogenum
[7] = system: M. mucogenium group; assay: MIC (CLSI broth dilution), RGM isolates; assay type: cell-based
[8] = system: M. smegmatis group; assay: MIC (CLSI broth dilution), RGM isolates; assay type: cell-based

Work on `C[C@H]1c2cccc(O)c2C(=O)C2=C(O)[C@]3(O)C(=O)C(C(N)=O)=C(O)[C@@H](N(C)C)[C@@H]3[C@@H](O)[C@@H]21` [Doxycycline, doxycycline] yielded an MIC ([1]; isolate No. 11, 3480) of 16 µg/mL (≈ 36 µM), an MIC ([1]; isolate No. 12, 3126) of 16 µg/mL (≈ 36 µM) and an MIC ([1]; isolate No. 13, 3579) of 16 µg/mL (≈ 36 µM). For the same molecule, the MIC ([1]; isolate No. 14, 7484) was 64 µg/mL (≈ 144 µM), the MIC ([1]; isolate No. 15, 3488) was 32 µg/mL (≈ 72 µM) and the MIC ([1]; isolate No. 16, 3276) was 0.25 µg/mL (≈ 0.563 µM). For the same molecule, the MIC ([1]; isolate No. 17, 3442) was 0.25 µg/mL (≈ 0.563 µM), the MIC ([1]; isolate No. 18, 3316) was 32 µg/mL (≈ 72 µM) and the MIC ([1]; isolate No. 19, 3490) was 16 µg/mL (≈ 36 µM). It also gave an MIC ([1]; isolate No. 20, 2491) greater than 64 µg/mL, an MIC50 [2] greater than 8 µg/mL and an MIC90 [2] greater than 8 µg/mL. For the same molecule, the MIC ([3]; isolate 1, M. abscessus complex, erm gene type MAB30) was greater than 8 µg/mL, the MIC ([3]; isolate 2, M. abscessus complex, erm gene type MAB30) was greater than 8 µg/mL and the MIC ([3]; isolate 3, M. abscessus complex, erm gene type MAB30) was greater than 8 µg/mL. For the same molecule, the MIC ([3]; isolate 4, M. abscessus complex, erm gene type massiliense) was greater than 8 µg/mL, the MIC ([3]; isolate 5, M. abscessus complex, erm gene type massiliense/subsp. abs hybrid) was greater than 8 µg/mL and the MIC ([3]; isolate 6, M. abscessus complex, erm gene type Type 1 abscessus) was greater than 8 µg/mL. For the same molecule, the MIC ([3]; isolate 7, M. abscessus complex, erm gene type Type 1 abscessus) was greater than 8 µg/mL, the MIC ([3]; isolate 8, M. abscessus complex, erm gene type Type 1 abscessus) was greater than 8 µg/mL and the MIC ([3]; isolate 9, M. abscessus complex, erm gene type Type 1 abscessus) was greater than 8 µg/mL. The MIC ([3]; isolate 10, M. abscessus complex, erm gene type Type 1 abscessus) was greater than 8 µg/mL, the MIC ([3]; isolate 11, M. abscessus complex, erm gene type Type 6 abscessus) was greater than 8 µg/mL and the MIC ([3]; isolate 12, M. abscessus complex, erm gene type Type 6 abscessus) was greater than 8 µg/mL. The MIC ([3]; isolate 13, M. abscessus complex, erm gene type Type 6 abscessus) was greater than 8 µg/mL, the MIC ([3]; isolate 14, M. abscessus complex, erm gene type Type 6 abscessus) was 8 µg/mL (≈ 18 µM) and the MIC ([3]; isolate 15, M. abscessus complex, erm gene type Type 7 abscessus) was greater than 8 µg/mL. For the same molecule, the MIC ([3]; isolate 16, M. abscessus complex, erm gene type Type 7 abscessus) was greater than 8 µg/mL, the MIC ([3]; isolate 17, M. abscessus complex, erm gene type Type 8 abscessus) was greater than 8 µg/mL and the MIC ([4]; isolate 18, M. chelonae) was greater than 8 µg/mL. For the same molecule, the MIC ([4]; isolate 19, M. chelonae) was greater than 8 µg/mL, the MIC ([4]; isolate 20, M. chelonae) was greater than 8 µg/mL and the MIC ([4]; isolate 21, M. chelonae) was greater than 8 µg/mL. For the same molecule, the MIC ([4]; isolate 22, M. chelonae) was greater than 8 µg/mL, the MIC ([5]; isolate 23, M. fortuitum group, M. fortuitum) was no more than 0.12 µg/mL and the MIC ([5]; isolate 24, M. fortuitum group, M. fortuitum) was 0.25 µg/mL (≈ 0.563 µM). For the same molecule, the MIC ([5]; isolate 25, M. fortuitum group, M. fortuitum) was greater than 8 µg/mL, the MIC ([5]; isolate 26, M. fortuitum group, M. porcinum) was 4 µg/mL (≈ 9 µM) and the MIC ([5]; isolate 27, M. fortuitum group, M. porcinum) was 8 µg/mL (≈ 18 µM). For the same molecule, the MIC ([5]; isolate 28, M. fortuitum group, M. porcinum/M. boenickei) was 2 µg/mL (≈ 4.5 µM), the MIC ([5]; isolate 29, M. fortuitum group, M. porcinum/M. boenickei) was greater than 8 µg/mL and the MIC ([5]; isolate 30, M. fortuitum group, M. porcinum/M. boenickei) was greater than 8 µg/mL. It also gave an MIC ([5]; isolate 31, M. fortuitum group, M. senegalense) of no more than 0.12 µg/mL, an MIC ([5]; isolate 32, M. fortuitum group, M. senegalense) of no more than 0.12 µg/mL and an MIC ([5]; isolate 33, M. fortuitum group, M. senegalense) of no more than 0.12 µg/mL. It also gave an MIC ([5]; isolate 34, M. fortuitum group, M. senegalense) of no more than 0.12 µg/mL, an MIC ([6]; isolate 35, M. immunogenum group) greater than 8 µg/mL and an MIC ([6]; isolate 36, M. immunogenum group) of 1 µg/mL (≈ 2.25 µM). For the same molecule, the MIC ([6]; isolate 37, M. immunogenum group) was greater than 8 µg/mL, the MIC ([6]; isolate 38, M. immunogenum group) was greater than 8 µg/mL and the MIC ([7]; isolate 39, M. mucogenicum group, M. mucogenicum) was 0.25 µg/mL (≈ 0.563 µM). The MIC ([7]; isolate 40, M. mucogenicum group, M. mucogenicum) was no more than 0.12 µg/mL, the MIC ([7]; isolate 41, M. mucogenicum group, M. mucogenicum) was no more than 0.12 µg/mL and the MIC ([7]; isolate 42, M. mucogenicum group, M. mucogenicum) was no more than 0.12 µg/mL. The MIC ([7]; isolate 43, M. mucogenicum group, M. phocaicum) was no more than 0.12 µg/mL, the MIC ([7]; isolate 44, M. mucogenicum group, M. phocaicum) was greater than 8 µg/mL and the MIC ([7]; isolate 45, M. mucogenicum group, M. phocaicum) was greater than 8 µg/mL. For the same molecule, the MIC ([7]; isolate 46, M. mucogenicum group, M. phocaicum) was greater than 8 µg/mL, the MIC ([7]; isolate 47, M. mucogenicum group, M. phocaicum) was 0.25 µg/mL (≈ 0.563 µM) and the MIC ([7]; isolate 48, M. mucogenicum group, M. phocaicum) was 4 µg/mL (≈ 9 µM). For the same molecule, the MIC ([8]; isolate 49, M. smegmatis group, M. goodii) was no more than 0.12 µg/mL and the MIC ([8]; isolate 50, M. smegmatis group, M. wolinskyi) was 1 µg/mL (≈ 2.25 µM).
